Source: paper PMC7450630 (ACS Omega, 2020)
pIC50: −log10 of the molar value.

Target: PD-L1 (Homo sapiens, UniProt Q9NZQ7)
Test: HTRF PD-1/PD-L1 binding assay

Sequence of PD-L1 (Q15116 25-288): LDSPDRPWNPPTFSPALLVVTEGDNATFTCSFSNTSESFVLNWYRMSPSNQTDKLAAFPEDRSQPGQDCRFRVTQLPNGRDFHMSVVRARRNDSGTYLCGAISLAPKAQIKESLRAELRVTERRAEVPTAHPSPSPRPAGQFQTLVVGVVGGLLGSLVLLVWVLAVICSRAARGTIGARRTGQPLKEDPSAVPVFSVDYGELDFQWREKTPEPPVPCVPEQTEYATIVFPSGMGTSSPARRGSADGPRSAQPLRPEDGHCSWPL
Sequence of PD-L1 (Q9NZQ7 19-290): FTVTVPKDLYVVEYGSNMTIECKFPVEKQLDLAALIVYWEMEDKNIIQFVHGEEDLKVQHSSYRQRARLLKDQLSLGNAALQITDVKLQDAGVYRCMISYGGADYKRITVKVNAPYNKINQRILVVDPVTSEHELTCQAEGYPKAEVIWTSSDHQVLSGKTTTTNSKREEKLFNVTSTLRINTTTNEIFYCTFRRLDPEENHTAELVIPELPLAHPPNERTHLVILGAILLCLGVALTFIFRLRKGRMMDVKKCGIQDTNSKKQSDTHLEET

| pIC50 | SMILES |
| --- | --- |
| 4.85 | Cc1c(COc2ccc(CN3CCN(C)CC3)c(OCc3cn(-c4cccc(C#N)c4)nn3)c2)cccc1-c1ccccc1 [8a, 3-(4-((5-((2-Methylbiphenyl-3-yl)methoxy)-2-((4-methylpiperazin-1yl)methyl)phenoxy)methyl)-1H-1,2,3-triazol-1-yl)benzonitrile] |
| 5.07 | Cc1c(COc2ccc(CN3CCNCC3)c(OCc3cn(-c4cccc(C#N)c4)nn3)c2)cccc1-c1ccccc1 [compound 7, 3-(4-((5-((2-Methylbiphenyl-3-yl)methoxy)-2-(piperazin-1-ylmethyl)phenoxy)methyl)-1H-1,2,3-triazol-1-yl)benzonitrile] |
